What was measured:
[1] = biological target: NS3/4A protease (Hepatitis C virus genotype 1a, UniProt P27958); assay: cell-based; set-up: species or system HCV type 1a
Method: One of the cloned cell lines was further infected with the lentiviral vector encoding NS 3/4A gene. After zeocin selection (250 μg/ml) for 3 to 4 weeks, one zoscine-resistant clone was obtained. This cell line was confirmed by Western blot to express both NS3/4A protease and EG(D4AB)SEAP, and therefore designated as 293P-EG(Δ4AB)SEAP-NS3/4A.
More specifically, 293P-EG(Δ4AB)SEAP-NS3/4A cells were seeded in 96-well plates (1.5×10^4 cells per well) and cultured at 37° C. overnight. […] Two days later, the culture medium in each well was replaced with fresh phenol red-free DMEM/10% FBS containing the same concentration of drugs. After another day, the culture medium was collected and the SEAP activity was measured using a Phospha-Light assay kit (Tropix, Foster City, Calif., USA) according to manufacturer's instruction.

[2] = test system: 293P-EG(Δ4AB)SEAP-NS3/4A cells; assay: MTS cellular toxicity assay; format: cell-based; details: concentration up to 10 μM
[3] = biological target: T1, NS3/4A protease in Ava5-EG(Δ4AB)SEAP cells (Hepatitis C virus genotype 1b, UniProt Q9WMX2); assay: SEAP activity in medium of stable Ava5-EG(Δ4AB)SEAP cells; format: cell-based, HCV; details: for extracellular SEAP activity: TPCK 0-40 μM or IFN-γ 0-100 I.U./ml
T1 construct: Ava5 cells expressed endogenous NS3/4A protease; endogenous in cells; host or cells: Ava5 cells (Huh-7 carrying an HCV subgenomic replicon)
Method: (§1) After the cotransfection, culture media and cell lysates were harvested at 12-hour intervals. The SEAP activity in the culture medium and the β-galactosidase activity in the cell lysates were measured using Phospha-Light and Galacto-Star assay kits (Tropix, Foster, Calif., USA), respectively. The respective chemiluminescent intensities were detected by a Top Counter Microplate Scintillation and Luminescence Counter (Packard, Meriden, Conn., USA). The intensities reflected the relative activities of SEAP and […]. In these experiments, the β-gal activity was used to normalize transfection efficiency according standard techniques. Meanwhile, fluorescence emitted from the green fluorescent protein was examined using a fluorescence microscope (Nikon DIAPHOT 300).
Huh-7 or Ava5 cells were seeded in 24-well plates at a density of 2×10^4 cells per well. After incubation at 37° C. overnight, the cells were transduced with serial dilutions of lentiviral particles in the presence of 6 μg/ml polybrene (Sigma, St. Louis, Mo., USA) in the manner described above. After incubation for 24 hours, the virus-containing medium was replaced by a fresh medium and the cells were incubated for another 2 days. The cells were then selected in the presence of 10 μg/ml of blasticidin for 3-4 weeks.
One blasticidin-resistant Huh-7 clone and two blasticidin-resistant Ava5 clones were obtained. Cell lines thus produced were designated as Huh-7-EG(Δ4AB)SEAP and […], respectively. The cells were then examined for expression of EG(Δ4AB)SEAP and the amount NS3 protein by Western blot analysis using anti-EGFP antibody and anti-NS3 antibody, respectively. […] They also expressed free EGFP, resulting from the cleavage of the EG(Δ4AB)SEAP by NS3/4A protease. In naive Huh-7 and Ava5 cells, neither free EGFP nor NS3 could be detected.
(§2) Ava5-EG(Δ4AB)SEAP clone 1 was further treated by IFN-α (0-50 units/ml) in the manner described above. They, the cells were examined for cellular NS3/4A protein and HCV RNA levels by western blot and dot blot, respectively. The dot blot was conducted as follows: RNA was extracted using TRIZOL reagent (Invitrogen). Three micrograms of RNA was dissolved in 100 μl of TE buffer (10 mM Tris-HCl, 1 mM EDTA, pH 7.5) and 60 μl of 20×SSC, and 40 μl of 37% formaldehyde stock solution were added. The samples were incubated at 60° C. for 15 min and then applied to pre-wetted nylon membrane using an S&S Minifold® I dot-blot device (Schleicher & Schuell GmbH, Relliehausen, Germany). Each well was washed twice with 6×SSC. Bound RNA was immobilized onto the membrane by UV-cross linking (Stratagene, La Jolla, Calif., USA) under the autocross-link condition, then hybridization and counting were conducted as described (Lee et al., 2003. Anal. Biochem.316, 162-170a). The membrane was probed with NS5B gene fragment of HCV labeled with […] by rediprime II random primer labeling system (Amersham Biosciences, Buckinghamshire, England). The blots were visualized by autoradiography and intensities of the blots were measured by densitometry (UVP GDS-8000 BioImaging System, Upland, Calif., USA).
The just-described cell line was used to examined several other known anti-HCV compounds, such as an NS3/4A inhibitor, N-tosyl-1-phenylalanine chloromethyl ketone (TPCK) (Berdichevsky et al., 2003, J. Virol. Methods 107, 245-255.), and IFN-γ (Frese et al., 2002, Hepatology 35, 694-703.). […]

[4] = test system: endogenous NS3/4A protease in Ava5 cells; assay: SEAP activity in medium of Ava5 cells transiently transfected with EG(Δ4AB)SEAP; format: cell-based, HCV; details: 100 IU/ml
Method: as §1
Ava5 cells expressed endogenous NS3/4A protease. […] Western blotting was also conducted in the same manner.

[5] = test system: HCV subgenomic replicons (HCV RNA); assay: HCV RNA level by Northern hybridization in Ava5 cells expressing EG(Δ4AB)SEAP; format: cell-based; details: 100 IU/ml
[6] = test system: HCV RNA; assay: HCV RNA level by dot blot in Ava5-EG(Δ4AB)SEAP clone 1; format: cell-based; details: 0-50 units/ml
Method: as §2

[7] = test system: NS3/4A protein; assay: Cellular NS3/4A protein level by western blot in Ava5-EG(Δ4AB)SEAP clone 1; format: cell-based, HCV; details: 0-50 units/ml
Method: as §2

[8] = test system: HCV NS3 protease; details: 100 IU/ml, Ava5 cells, especially after 3 days of treatment
Method: They were maintained in DMEM/10% FBS/1 mg/ml G418 (Geneticin) and DMEM/10% FBS, respectively. Ava5 cells expressed endogenous NS3/4A protease. The above-described dual-reporter construct was transient transfected into the cells in the same manner descried above except that FuGENE 6 (Roche), instead of LipofectamineTM was used. Western blotting was also conducted in the same manner.
Ava5 cells expressing EG(Δ4AB)SEAP were then tested for the ability to screen for HCV protease inhibitors. More specifically, the cells were treated with IFN-α (Schering-Plough Corp., Kenilworth, N.J., USA) and examined for the SEAP activity in their medium in the manner described above.
The protein level of NS3 protease was also determined by standard techniques.

[9] = Ava5-EG(Δ4AB)SEAP cells, 72 hours

T1 sequence (Q9WMX2 1027-1657, stated change not applied): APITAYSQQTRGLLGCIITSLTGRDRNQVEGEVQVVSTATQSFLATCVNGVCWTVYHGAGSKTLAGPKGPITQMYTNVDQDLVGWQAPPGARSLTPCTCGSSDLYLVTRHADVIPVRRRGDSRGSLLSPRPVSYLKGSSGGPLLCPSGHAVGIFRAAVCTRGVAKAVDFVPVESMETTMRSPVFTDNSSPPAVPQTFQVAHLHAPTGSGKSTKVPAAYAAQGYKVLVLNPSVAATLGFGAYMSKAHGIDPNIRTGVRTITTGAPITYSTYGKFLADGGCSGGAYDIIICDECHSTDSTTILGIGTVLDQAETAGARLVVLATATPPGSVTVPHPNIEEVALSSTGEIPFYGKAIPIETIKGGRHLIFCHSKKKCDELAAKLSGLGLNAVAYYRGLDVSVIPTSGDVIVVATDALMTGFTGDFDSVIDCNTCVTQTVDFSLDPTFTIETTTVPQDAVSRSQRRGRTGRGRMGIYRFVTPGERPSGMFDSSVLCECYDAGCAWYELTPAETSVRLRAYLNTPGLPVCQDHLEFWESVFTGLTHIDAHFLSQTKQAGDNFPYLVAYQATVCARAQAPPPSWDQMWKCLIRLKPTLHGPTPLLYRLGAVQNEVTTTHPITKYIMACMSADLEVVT
T1 sequence (Q9WMX2 1658-1711, stated change not applied): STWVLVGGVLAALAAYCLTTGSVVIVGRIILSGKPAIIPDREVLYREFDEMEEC
NS3/4A protein, sequence (Q9WMX2 1027-1657): as the sequence (Q9WMX2 1027-1657, stated change not applied) above
endogenous NS3/4A protease in Ava5 cells, sequence (Q9WMX2 1027-1657): as the sequence (Q9WMX2 1027-1657, stated change not applied) above
HCV NS3 protease, sequence (Q9WMX2 1027-1657): as the sequence (Q9WMX2 1027-1657, stated change not applied) above
NS3/4A protease, sequence (P27958 1027-1657): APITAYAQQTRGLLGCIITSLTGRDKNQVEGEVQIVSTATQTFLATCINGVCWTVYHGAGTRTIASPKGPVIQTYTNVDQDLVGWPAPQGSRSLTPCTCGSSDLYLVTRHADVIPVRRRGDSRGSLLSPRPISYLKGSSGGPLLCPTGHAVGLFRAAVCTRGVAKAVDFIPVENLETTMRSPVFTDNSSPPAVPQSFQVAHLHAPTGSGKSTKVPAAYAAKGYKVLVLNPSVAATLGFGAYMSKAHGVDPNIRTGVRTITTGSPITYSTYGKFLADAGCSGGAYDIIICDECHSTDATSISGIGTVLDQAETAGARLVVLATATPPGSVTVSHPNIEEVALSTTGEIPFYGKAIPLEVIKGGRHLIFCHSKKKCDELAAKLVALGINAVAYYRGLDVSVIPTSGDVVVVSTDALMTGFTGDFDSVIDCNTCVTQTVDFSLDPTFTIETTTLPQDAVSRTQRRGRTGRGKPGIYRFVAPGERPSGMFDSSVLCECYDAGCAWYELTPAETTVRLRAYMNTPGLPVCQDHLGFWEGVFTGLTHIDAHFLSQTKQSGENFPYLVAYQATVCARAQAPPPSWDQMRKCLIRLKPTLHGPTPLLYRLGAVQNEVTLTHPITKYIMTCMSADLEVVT
NS3/4A protease, sequence (P27958 1658-1711): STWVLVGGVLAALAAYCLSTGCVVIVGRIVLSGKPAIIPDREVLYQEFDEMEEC

Molecule: COc1ccc2c(O[C@@H]3C[C@H]4C(=O)N[C@]5(C(=O)O)C[C@H]5/C=C\CCCCC[C@H](NC(=O)OC5CCCC5)C(=O)N4C3)cc(-c3csc(NC(C)C)n3)nc2c1 [BILN-2061]
- EC50 [1]: ~2 nM
- cellular toxicity as measured by MTS assay [2]: did not cause detectable cellular toxicity

Molecule: Cc1ccc(S(=O)(=O)N[C@@H](Cc2ccccc2)C(=O)CCl)cc1 [TPCK, N-tosyl-1-phenylalanine chloromethyl ketone, reference compound]
- extracellular SEAP activity [3, 9]: dose-dependent decrease
- suppression of HCV replication ([3]; at 0.2 μM, Ava5-EG(Δ4AB)SEAP cells, 72 hours): more than 50%

Molecule: IFN-α
- SEAP activity in the culture medium [4]: decreased
- RNA levels of gadph (housekeeping gene) [5]: remained the same
- HCV RNA levels ([5]; especially after 3 days of treatment): declined
- SEAP activity in the culture medium ([3]; 0-50 units/ml, Ava5-EG(Δ4AB)SEAP clone 1): decreased
- HCV RNA level (dot blot) [6]: decreased
- cellular NS3/4A protein level (western blot) [7]: decreased
- HCV NS3 protease levels [8]: declined

B1: IFN-γ: IFN-γ, known anti-HCV compound (Frese et al., 2002) (protein, UniProt P01579 24-161, looked up)
Interferon gamma: QDPYVKEAENLKKYFNAGHSDVADNGTLFLGILKNWKEESDRKIMQSQIVSFYFKLFKNFKDDQSIQKSVETIKEDMNVKFFNSNKKKRDDFEKLTNYSVTDLNVQRKAIHELIQVMAELSPAAKTGKRKRSQMLFRG
- extracellular SEAP activity [3, 9]: repressed
- EC50 (effective concentration for 50% inhibition) ([3]; extracellular SEAP activity, Ava5-EG(Δ4AB)SEAP cells, 72 hours): below 10 IU/ml

From patent US20050053921A1, “Systems for screening anti-hepatitis drugs” (priority 2003, published 2005)
